Measurements from patent publication US20100204203A1, “Chemical Compounds 637: Pyridopyrimidinediones as PDE4 Inhibitors” (priority 2007, published 2010).
Counter-ions that a name gives are not always drawn.

The compounds below were run against recombinant Human Phosphodiesterase B2 (PDE4B2) (Homo sapiens, UniProt Q07343) (assay: Human Phosphodiesterase B2 Radiometric Assay (yttrium silicate SPA beads, [3H]cyclic AMP)). Conditions: recombinant human PDE4B2, radiometric SPA assay, 8 nM [3H]cyclic AMP; read-out: PDE4B2 pIC50 (converted).
Chain of recombinant Human Phosphodiesterase B2 (PDE4B2) (Q07343 1-564 isoform Q07343-2): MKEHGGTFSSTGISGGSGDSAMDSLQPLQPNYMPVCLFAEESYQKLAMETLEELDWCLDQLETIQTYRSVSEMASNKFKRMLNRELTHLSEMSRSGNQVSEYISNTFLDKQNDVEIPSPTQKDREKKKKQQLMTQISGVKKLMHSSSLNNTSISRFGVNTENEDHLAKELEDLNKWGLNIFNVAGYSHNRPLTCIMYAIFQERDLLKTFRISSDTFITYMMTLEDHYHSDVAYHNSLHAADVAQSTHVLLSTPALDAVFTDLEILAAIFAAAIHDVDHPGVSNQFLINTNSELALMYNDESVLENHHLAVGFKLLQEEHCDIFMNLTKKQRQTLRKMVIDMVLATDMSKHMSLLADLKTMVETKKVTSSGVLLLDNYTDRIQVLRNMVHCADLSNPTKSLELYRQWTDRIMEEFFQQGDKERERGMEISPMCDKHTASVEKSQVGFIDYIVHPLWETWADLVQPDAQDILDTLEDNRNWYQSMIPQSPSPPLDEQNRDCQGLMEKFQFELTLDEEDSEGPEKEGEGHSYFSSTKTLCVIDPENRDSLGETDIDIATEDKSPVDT
Assay type: biochemical
In short: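 Read-out is scintillation proximity: yttrium silicate beads (with 18 mM ZnSO4, added to stop the reaction) bind 5′AMP formed from 8 nM [3H]cAMP over 20 min. Beforehand, compound and 0.1 mg/mL enzyme were preincubated 30 min at 30 °C in pH 7.5 HEPES buffer with MgCl2, EGTA and Brij 35; pIC50 values were curve-fitted.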
CCOCCNCc1ccc(-c2cccc(-n3c(=O)n([C@H]4CC[C@@H](NC(=O)c5cn6c(n5)CCCC6)CC4)c(=O)c4cc(F)cnc43)c2)cc1 [Example 123, N-{cis-4-[1-(4′-{[(2-ethoxyethyl)amino]methyl}biphenyl-3-yl)-6-fluoro-2,4-dioxo-1,4-dihydropyrido[2,3-d]pyrimidin-3(2H)-yl]cyclohexyl}-5,6,7,8-tetrahydroimidazo[1,2-a]pyridine-2-carboxamide] was tested, and the IC50 was 0.0398 nM.
Work on O=C(N[C@H]1CC[C@@H](n2c(=O)c3cc(F)cnc3n(-c3cccc(-c4ccc(CCCNCCCO)cc4)c3)c2=O)CC1)c1cn2cc(F)ccc2n1 [Example 96, 6-fluoro-N-{cis-4-[6-fluoro-1-(4′-{3-[(3-hydroxypropyl)amino]propyl}biphenyl-3-yl)-2,4-dioxo-1,4-dihydropyrido[2,3-d]pyrimidin-3(2H)-yl]cyclohexyl}imidazo[1,2-a]pyridine-2-carboxamide] yielded an IC50 of 0.0126 nM.
For O=c1c2cc(F)cnc2n(-c2cccc(-c3ccc(O)cc3CN3CCOCC3)c2)c(=O)n1[C@H]1CC[C@@H](NCc2cc(Cl)ccc2O)CC1 [Example 250, 3-{cis-4-[(5-Chloro-2-hydroxybenzyl)amino]cyclohexyl}-6-fluoro-1-[4′-hydroxy-2′-(morpholin-4-ylmethyl)biphenyl-3-yl]pyrido[2,3-d]pyrimidine-2,4(1H,3H)-dione], the IC50 was 0.2 nM.
COC[C@H](C)N(C)Cc1cc(O)ccc1-c1cccc(-n2c(=O)n([C@H]3CC[C@@H](NCc4cn5cc(F)ccc5n4)CC3)c(=O)c3cc(F)cnc32)c1 [Example 315, 6-fluoro-3-(cis-4-{[(6-fluoroimidazo[1,2-a]pyridin-2-yl)methyl]amino}cyclohexyl)-1-(4′-hydroxy-2′-{[[(1S)-2-methoxy-1-methylethyl](methyl)amino]methyl}biphenyl-3-yl)pyrido[2,3-d]pyrimidine-2,4(1H,3H)-dione] showed an IC50 of 0.158 nM.
Cc1cc(C(=O)N[C@H]2CC[C@@H](n3c(=O)c4cc(F)cnc4n(-c4cccc(-c5ccc(CN6CCCCC6)cc5)c4)c3=O)CC2)nn1C [Example 112, N-{cis-4-[6-fluoro-2,4-dioxo-1-[4′-(piperidin-1-ylmethyl)biphenyl-3-yl]-1,4-dihydropyrido[2,3-d]pyrimidin-3(2H)-yl]cyclohexyl}-1,5-dimethyl-1H-pyrazole-3-carboxamide] showed an IC50 of 0.0501 nM.
Work on CC(C)NCCOc1ccc(-c2cccc(-n3c(=O)n([C@H]4CC[C@@H](NC(=O)c5cn6cc(F)ccc6n5)CC4)c(=O)c4cc(F)cnc43)c2)cc1 [Example 342] yielded an IC50 of 0.0316 nM.
With O=C(O)c1ccc(-c2cccc(-n3c(=O)n([C@H]4CC[C@@H](NC(=O)c5cn6cc(F)ccc6n5)CC4)c(=O)c4cc(F)cnc43)c2)cc1 [Example 27, 3′-[6-fiuoro-3-(cis-4-{[(6-fluoroimidazo[1,2-a]pyridin-2-yl)carbonyl]amino}cyclohexyl)-2,4-dioxo-3,4-dihydropyrido[2,3-d]pyrimidin-1(2H)-yl]biphenyl-4-carboxylic acid] the IC50 was 0.251 nM.
With C[C@@H]1COCCN1Cc1cc(O)ccc1-c1cccc(-n2c(=O)n([C@H]3CC[C@@H](NCc4cn5cc(F)ccc5n4)CC3)c(=O)c3cc(F)cnc32)c1 [Example 316, 6-fluoro-3-(cis-4-{[(6-fluoroimidazo[1,2-a]pyridin-2-yl)methyl]amino}cyclohexyl)-1-(4′-hydroxy-2′-{[(3R)-3-methylmorpholin-4-yl]methyl}biphenyl-3-yl)pyrido[2,3-d]pyrimidine-2,4(1H,3H)-dione] the IC50 was 0.0316 nM.
NC1(C(=O)N[C@H]2CC[C@@H](n3c(=O)c4cc(F)cnc4n(-c4cccc(-c5ccccc5CN5CCOCC5)c4)c3=O)CC2)CCCC1 [Example 70, 1-amino-N-{cis-4-[6-fluoro-1-[2′-(morpholin-4-ylmethyl)biphenyl-3-yl]-2,4-dioxo-1,4-dihydropyrido[2,3-d]pyrimidin-3(2H)-yl]cyclohexyl}cyclopentanecarboxamide trifluoroacetate salt] was tested, and the IC50 was 2 nM.
In the case of O=C(N[C@H]1CC[C@@H](n2c(=O)c3cc(F)cnc3n(-c3cccc(-c4ccc(OCCN5CCCC5)cc4)c3)c2=O)CC1)c1cn2cc(F)ccc2n1 [Example 79, 6-fluoro-N-{cis-4-[6-fluoro-2,4-dioxo-1-[4′-(2-pyrrolidin-1-ylethoxy)biphenyl-3-yl]-1,4-dihydropyrido[2,3-d]pyrimidin-3(2H)-yl]cyclohexyl}imidazo[1,2-a]pyridine-2-carboxamide], the IC50 is reported as 0.02 nM.
Compound CNC1CCN(Cc2ccc(-c3cccc(-n4c(=O)n([C@H]5CC[C@@H](NC(=O)c6cn7cc(F)ccc7n6)CC5)c(=O)c5cc(F)cnc54)c3)cc2)CC1 [Example 61, 6-fluoro-N-{cis-4-[6-fluoro-1-(4′-{[4-(methylamino)piperidin-1-yl]methyl}biphenyl-3-yl)-2,4-dioxo-1,4-dihydropyrido[2,3-d]pyrimidin-3(2H)-yl]cyclohexyl}imidazo[1,2-a]pyridine-2-carboxamide] has an IC50 of 0.02 nM.
Compound O=C(N[C@H]1CC[C@@H](n2c(=O)c3cc(F)cnc3n(-c3ccc4c(cnn4Cc4ccccc4)c3)c2=O)CC1)c1cn2ccccc2n1 [Example 35, N-{cis-4-[1-(1-benzyl-1H-indazol-5-yl)-6-fluoro-2,4-dioxo-1,4-dihydropyrido[2,3-d]pyrimidin-3(2H)-yl]cyclohexyl}imidazo[1,2-a]pyridine-2-carboxamide] has an IC50 of 6.31 nM.
Compound O=c1c2cc(F)cnc2n(-c2cccc(-c3ccc(O)cc3CN3CCC[C@@H]3CO)c2)c(=O)n1[C@H]1CC[C@@H](NCc2cn3cc(F)ccc3n2)CC1 [Example 332, 6-fluoro-3-(cis-4-{[(6-fluoroimidazo[1,2-a]pyridin-2-yl)methyl]amino}cyclohexyl)-1-(4′-hydroxy-2′-{[(2R)-2-(hydroxymethyl)pyrrolidin-1-yl]methyl}biphenyl-3-yl)pyrido[2,3-d]pyrimidine-2,4(1H,3H)-dione] has an IC50 of 0.0501 nM.
O=c1c2cc(F)cnc2n(-c2cccc(-c3ccc(O)cc3CN3CCC[C@H]3CO)c2)c(=O)n1[C@H]1CC[C@@H](NCc2cn3cc(F)ccc3n2)CC1 [Example 330, 6-fluoro-3-(cis-4-{[(6-fluoroimidazo[1,2-a]pyridin-2-yl)methyl]amino}cyclohexyl)-1-(4′-hydroxy-2′-{[(2S)-2-(hydroxymethyl)pyrrolidin-1-yl]methyl}biphenyl-3-yl)pyrido[2,3-d]pyrimidine-2,4(1H,3H)-dione] showed an IC50 of 2.51 nM.
CN1CCN(Cc2cc(O)ccc2-c2cccc(-n3c(=O)n([C@H]4CC[C@@H](NC(=O)c5cn6cc(F)ccc6n5)CC4)c(=O)c4cc(F)cnc43)c2)CC1 [Example 71, 6-fluoro-N-{cis-4-[6-fluoro-1-{4′-hydroxy-2′-[(4-methylpiperazin-1-yl)methyl]biphenyl-3-yl}-2,4-dioxo-1,4-dihydropyrido[2,3-d]pyrimidin-3(2H)-yl]cyclohexyl}imidazo[1,2-a]pyridine-2-carboxamide trifluoroacetate salt] showed an IC50 of 0.0794 nM.
For C[C@H](CO)NCc1ccc(-c2cccc(-n3c(=O)n([C@H]4CC[C@@H](NC(=O)c5cn6cc(F)ccc6n5)CC4)c(=O)c4cc(F)cnc43)c2)cc1 [Example 59], the IC50 was 0.158 nM.
Compound CC(C)C(=O)N[C@H]1CC[C@@H](n2c(=O)c3cc(F)cnc3n(-c3cccc(-c4ccc(CN5CCN(C(C)C)CC5)cc4)c3)c2=O)CC1 [Example 238, N-{cis-4-[6-fluoro-1-{4′-[(4-isopropylpiperazin-1-yl)methyl]biphenyl-3-yl}-2,4-dioxo-1,4-di-hydropyrido[2,3-d]pyrimidin-3(2H)-yl]cyclohexyl}-2-methyl-propanamide] has an IC50 of 0.2 nM.
With Cc1cnc(C(=O)N[C@H]2CC[C@@H](n3c(=O)c4cc(F)cnc4n(-c4cccc(-c5ccc(CN6CCC(N7CCCCC7)CC6)cc5)c4)c3=O)CC2)cn1 [Example 297, N-{cis-4-[1-[4′-(1,4′-bipiperidin-1′-ylmethyl)biphenyl-3-yl]-6-fluoro-2,4-dioxo-1,4-dihydropyrido[2,3-d]pyrimidin-3(2H)-yl]cyclohexyl}-5-methylpyrazine-2-carboxamide] the IC50 was 0.0316 nM.
O=C(N[C@H]1CC[C@@H](n2c(=O)c3cc(F)cnc3n(-c3cccc(-c4ccc(F)cc4OCCN4CCNCC4)c3)c2=O)CC1)c1cn2cc(F)ccc2n1 [Example 85, 6-fluoro-N-{cis-4-[6-fluoro-1-[4′-fluoro-2′-(2-piperazin-1-ylethoxy)biphenyl-3-yl]-2,4-dioxo-1,4-dihydropyrido[2,3-d]pyrimidin-3(2H)-yl]cyclohexyl}imidazo[1,2-a]pyridine-2-carboxamide] was tested, and the IC50 was 0.316 nM.
In the case of Cc1cc(O)ccc1-c1cccc(-n2c(=O)n([C@H]3CC[C@@H](NC(=O)c4cn5cc(F)ccc5n4)CC3)c(=O)c3cc(F)cnc32)c1 [Example 23, 6-fluoro-N-{cis-4-[6-fluoro-1-(4′-hydroxy-2′-methylbiphenyl-3-yl)-2,4-dioxo-1,4-dihydropyrido[2,3-d]pyrimidin-3(2H)-yl]cyclohexyl}imidazo[1,2-a]pyridine-2-carboxamide.], the IC50 is reported as 0.0398 nM.
CC(C)[C@H](N)C(=O)N[C@H]1CC[C@@H](n2c(=O)c3cc(F)cnc3n(-c3cccc(-c4ccc(CN5CCCN(C)CC5)cc4)c3)c2=O)CC1 [Example 314, N-{cis-4-[6-fluoro-1-{4′-[(4-methyl-1,4-diazepan-1-yl)methyl]biphenyl-3-yl}-2,4-dioxo-1,4-dihydropyrido[2,3-d]pyrimidin-3(2H)-yl]cyclohexyl}-L-valinamide] gave an IC50 of 0.398 nM.
In the case of CC(C)c1ccc(CN[C@H]2CC[C@@H](n3c(=O)c4cc(F)cnc4n(-c4cccc(-c5ccc(O)cc5CN5CCOCC5)c4)c3=O)CC2)cc1 [Example 283, 6-fluoro-1-[4′-hydroxy-2′-(morpholin-4-ylmethyl)biphenyl-3-yl]-3-{cis-4-[(4-isopropylbenzyl)amino]cyclohexyl} pyrido[2,3-d]pyrimidine-2,4(1H,3H)-dione], the IC50 is reported as 1.26 nM.
